This passage reports EC50 results from BindingDB's records for PubMed 34355178 (n/a, 2021).

This assay has as its target T1, Toll-like receptor 7 (Homo sapiens, UniProt Q9NYK1).
T1 sequence (Q9NYK1 whole entry): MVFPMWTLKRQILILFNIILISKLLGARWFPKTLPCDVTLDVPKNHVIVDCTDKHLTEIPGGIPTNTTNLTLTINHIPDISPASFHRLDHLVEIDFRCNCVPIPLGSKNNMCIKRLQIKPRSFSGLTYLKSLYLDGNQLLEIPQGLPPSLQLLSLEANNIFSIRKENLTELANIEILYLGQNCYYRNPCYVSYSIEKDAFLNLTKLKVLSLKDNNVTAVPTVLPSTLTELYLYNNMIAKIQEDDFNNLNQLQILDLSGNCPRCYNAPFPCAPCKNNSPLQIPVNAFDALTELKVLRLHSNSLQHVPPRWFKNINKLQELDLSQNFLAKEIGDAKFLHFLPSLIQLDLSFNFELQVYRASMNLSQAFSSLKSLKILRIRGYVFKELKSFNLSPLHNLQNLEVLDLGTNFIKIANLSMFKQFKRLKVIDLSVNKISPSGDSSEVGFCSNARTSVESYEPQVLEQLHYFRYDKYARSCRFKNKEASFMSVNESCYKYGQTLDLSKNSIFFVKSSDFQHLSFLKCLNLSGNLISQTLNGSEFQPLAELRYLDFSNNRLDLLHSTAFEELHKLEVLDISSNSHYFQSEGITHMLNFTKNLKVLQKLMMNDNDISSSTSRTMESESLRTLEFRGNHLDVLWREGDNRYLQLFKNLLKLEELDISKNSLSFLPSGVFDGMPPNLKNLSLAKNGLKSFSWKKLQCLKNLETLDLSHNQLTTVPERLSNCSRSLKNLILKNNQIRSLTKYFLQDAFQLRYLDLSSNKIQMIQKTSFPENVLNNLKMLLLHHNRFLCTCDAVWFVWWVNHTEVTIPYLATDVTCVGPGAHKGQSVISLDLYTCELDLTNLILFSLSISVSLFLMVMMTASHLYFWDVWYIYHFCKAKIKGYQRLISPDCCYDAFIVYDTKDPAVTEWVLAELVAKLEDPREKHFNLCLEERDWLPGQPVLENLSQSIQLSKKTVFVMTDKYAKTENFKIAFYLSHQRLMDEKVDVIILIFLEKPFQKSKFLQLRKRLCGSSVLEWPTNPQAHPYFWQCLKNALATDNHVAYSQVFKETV
The assay can be described thus: Agonist activity at human TLR7 in HEK-Blue hTLR7 cells assessed as activation of NFkappaB by SEAP reporter gene based spectrophotometry assay.

On to `CC[C@H](C)c1nc2c(N)nc3ccccc3c2s1`, for which the EC50 came to 8.11 µM.
With `CCCc1nc2c(N)nc3ccc(N)cc3c2s1`, the EC50 is 8.19 µM.
